Several values for one entry are separate records, joined by “and”; a condition that tells them apart may be missing. Equal values may be shown once.
Key:
BPntase = conditions: cited from earlier work
adenylate cyclase = conditions: preparations of native adenylate cyclase-containing membranes; P-site inhibitor; read-out: IC50 for inhibition of adenylate cyclase; cited from earlier work
[1] = biological target: T1, GST-PST (mouse phenol-preferring sulfotransferase fused to GST) (Mus musculus, UniProt P52840); assay: Binding of radiolabeled PAP to GST-PST (Scatchard); conditions: 100 nM purified GST-PST; Scatchard plot
T1 construct: The PST open reading frame was subcloned into the BamHI and NotI sites of pGEX4T-1; made in house; host or cells: bacteria (pGEX4T-1)
Procedure: FIG. 8 is a graph showing binding of PAP to GST-PST. Binding of radiolabeled PAP to 100 nM purified GST-PST was assayed in the presence of various concentrations of unlabeled PAP. […] The data are linear and intersect the y-axis at [Sb]/[Sf]=2.8.
Measurement of intracellular PAP concentrations. A novel isotope binding competition assay was developed to measure intracellular concentrations of PAP. The concentration of PAP in lysates was determined by the binding of radiolabeled PAP to the enzyme phenol (aryl) sulfotransferase (PST), which uses PAP as a cofactor (Yang, 1996b). […] The open reading frame was amplified by PCR using the primers 5′ […] (SEQ ID NO: 15) and 5′ […] (SEQ ID NO: 16) where the underlined sequences correspond to sequence in the PST open reading frame. The PCR product was gel purified and ligated into the pCR2.1 vector. […] The PST open reading frame was subcloned into the BamHI and NotI sites of pGEX4T-1 to create a bacterial expression vector in which PST was expressed in frame downstream of GST (GST-PST). […]
For the assay of intracellular PAP concentrations, appropriate yeast strains were grown in CM/ura^− to mid-log phase (OD600=1.0). […] The amount of soluble protein in this extract was determined using a Bradford dye-binding assay (BioRad, Hercules, Calif., United States of America) with bovine serum albumin as a standard. […]

[2] = tested on: intracellular PAP in wild type yeast; assay: Intracellular PAP concentration by GST-PST binding assay, wild type yeast; assay type: cell-based, S. cerevisiae
Procedure: (§1) Yeast were grown in CM/ura^− containing 2% galactose to mid-log phase. The cultures were washed extensively and resuspended in the CM/ura^−/met^− media with the noted inclusions. PAP was measured using the ligand binding assay described in Experimental Procedures. Intracellular PAP concentrations were normalized to the amount of soluble protein extracted from the cultures.
For the assay of intracellular PAP concentrations, appropriate yeast strains were grown in CM/ura^− to mid-log phase (OD600=1.0). The cells were centrifuged and washed extensively in sterile water. The cells were resuspended in CM/ura^−/met^− containing methionine (20 μg/ml), lithium, or chlorate as appropriate. The cultures were incubated with shaking at 30° C. At various time points, 2 ml of culture was removed and centrifuged. The cells were washed with 1 ml of water. 250 μl was centrifuged and resuspended in 200 μl K-lysis buffer. 200 μl of glass beads were added, and the cells were disrupted by vigorous bead beating. The amount of soluble protein in this extract was determined using a Bradford dye-binding assay (BioRad, Hercules, Calif., United States of America) with bovine serum albumin as a standard. The remaining 750 μl of washed cells was spun down and resuspended in 250 μl of 2 N HClO4. This was incubated at 4° C. for 20 min, when 250 μl of 1.8 N KOH, 0.4 N KHCO3 were added to neutralize and precipitate the HClO4. The extract was centrifuged at 4° C. to remove the debris, and the supernatant was lyophilized using a rotary evaporator. The dried extracts were frozen at −80° C. for no more than one week prior to use. Extracts were reconstituted in 100 μL of 200 mM HEPES, pH 7.5 and again centrifuged to remove debris. 5′ [^32P] 3′, 5′ PAP was created as described (Spiegelberg, 1999). The GST-PST assay was performed by mixing 10 μL of standard PAP, treated as above, or 10 μL of sample diluted approximately 1:1000 in K-lysis buffer, with 10 μL of radiolabeled PAP (approximately 10,000 CPM). Eighty microliters of a reaction mix containing 100 mM HEPES, pH 7.0, 5 mM DTT, 0.2 mg/ml BSA, and 1 μg of GST-PST were added to start the binding reaction. The reactions were allowed to equilibrate for at least one hour at room temperature. Following incubation, 20 μl of a 50:50 slurry of glutathione sepharose in K-lysis buffer was added. The tubes were incubated with gentle mixing for 10 min at room temperature. The protein with bound PAP was pulled down by centrifugation for 2 min at room temperature. 80 μl of the supernatant, containing free PAP, was removed to a scintillation vial and 200 μl of K-lysis buffer was added to wash the resin. The tubes were centrifuged again and the 200 μl wash was transferred to the original scintillation vials. Radioactivity was determined by adding 5 ml of […] ECONO2™ scintillation fluid (Fisher Scientific, Hampton, N.H., United States of America) and counted in a liquid scintillation counter. The counts were converted to percent isotope bound, and a standard curve was prepared by plotting percent bound vs. the logarithm of the PAP concentration. […]
The GST-PST binding assay was used to determine relative intracellular PAP concentrations in yeast strains grown under various conditions. The PAP concentration determined in the binding assay was normalized to the total soluble protein in parallel extracts, and background was eliminated by reporting only the signal that was sensitive to in vitro degradation by purified recombinant Hal2p. […]

[3] = tested on: intracellular PAP in met3Δ cells; assay type: cell-based, S. cerevisiae
Procedure: as §1
(§2) For the assay of intracellular PAP concentrations, appropriate yeast strains were grown in CM/ura^− to mid-log phase (OD600=1.0). The cells were centrifuged and washed extensively in sterile water. The cells were resuspended in CM/ura^−/met^− containing methionine (20 μg/ml), lithium, or chlorate as appropriate. The cultures were incubated with shaking at 30° C. At various time points, 2 ml of culture was removed and centrifuged. The cells were washed with 1 ml of water. 250 μl was centrifuged and resuspended in 200 μl K-lysis buffer. 200 μl of glass beads were added, and the cells were disrupted by vigorous bead beating. The amount of soluble protein in this extract was determined using a Bradford dye-binding assay (BioRad, Hercules, Calif., United States of America) with bovine serum albumin as a standard. The remaining 750 μl of washed cells was spun down and resuspended in 250 μl of 2 N HClO4. This was incubated at 4° C. for 20 min, when 250 μl of 1.8 N KOH, 0.4 N KHCO3 were added to neutralize and precipitate the HClO4. The extract was centrifuged at 4° C. to remove the debris, and the supernatant was lyophilized using a rotary evaporator. The dried extracts were frozen at −80° C. for no more than one week prior to use. Extracts were reconstituted in 100 μL of 200 mM HEPES, pH 7.5 and again centrifuged to remove debris. 5′ [^32P] 3′, 5′ PAP was created as described (Spiegelberg, 1999). The GST-PST assay was performed by mixing 10 μL of standard PAP, treated as above, or 10 μL of sample diluted approximately 1:1000 in K-lysis buffer, with 10 μL of radiolabeled PAP (approximately 10,000 CPM). Eighty microliters of a reaction mix containing 100 mM HEPES, pH 7.0, 5 mM DTT, 0.2 mg/ml BSA, and 1 μg of GST-PST were added to start the binding reaction. The reactions were allowed to equilibrate for at least one hour at room temperature. Following incubation, 20 μl of a 50:50 slurry of glutathione sepharose in K-lysis buffer was added. The tubes were incubated with gentle mixing for 10 min at room temperature. The protein with bound PAP was pulled down by centrifugation for 2 min at room temperature. 80 μl of the supernatant, containing free PAP, was removed to a scintillation vial and 200 μl of K-lysis buffer was added to wash the resin. The tubes were centrifuged again and the 200 μl wash was transferred to the original scintillation vials. Radioactivity was determined by adding 5 ml of […] ECONO2™ scintillation fluid (Fisher Scientific, Hampton, N.H., United States of America) and counted in a liquid scintillation counter. The counts were converted to percent isotope bound, and a standard curve was prepared by plotting percent bound vs. the logarithm of the PAP concentration. This standard curve was used to back-calculate the PAP concentration in the unknown samples.
(§3) The GST-PST binding assay was used to determine relative intracellular PAP concentrations in yeast strains grown under various conditions. The PAP concentration determined in the binding assay was normalized to the total soluble protein in parallel extracts, and background was eliminated by reporting only the signal that was sensitive to in vitro degradation by purified recombinant Hal2p. The assay was characterized further by analyzing the intracellular PAP concentration of wild type yeast grown in the presence of lithium.

[4] = tested on: intracellular PAP in met14Δ cells; assay type: cell-based, S. cerevisiae
Procedure: as §1, §2, §3

Wild type yeast = assay: Lithium inhibition of yeast growth (OD600), wild type; assay type: cell-based, S. cerevisiae; conditions: CM/ura−/met−, 24 hr at 30° C.
Procedure: FIG. 7 is a graph showing met3Δ and met14Δ strains are lithium resistant. Wild type, met3Δ, and met14Δ yeast were resuspended at 5×10^4/ml in CM/ura^− containing 2% dextrose and 1.25 μg/ml methionine. Growth at various concentrations of LiCl was measured after a 24 hr incubation at 30° C. The growth is plotted relative to growth in media lacking lithium.
FIG. 10 is a graph showing methionine supplementation induces lithium resistance. Wild type yeast were inoculated at 5×10^4 cells per ml into synthetic media with or without methionine containing the noted concentration of LiCl. Growth was assayed by spectrophotometry following 48 hrs of growth at 30° C.
Wild type yeast were grown in CM/ura^− containing 2% galactose to mid-log phase. The cultures were washed and resuspended at 5×10^5 cells/ml in CM/ura^−/met^− containing the noted lithium and chlorate concentrations. Following growth for 24 hr at 30° C., the cultures were resuspended, and growth was measured by determining the absorbance at λ=600 nm.
Since methionine effects transcriptional down regulation of the MET3 and MET14 gene products in wild type yeast, the relative lithium sensitivities of the met3Δ and met14Δ strains were assayed in growth media containing reduced methionine (1.25 μg/ml). The use of limited methionine allowed for the comparison of the relative sensitivity to lithium of yeast expressing (wild type) or lacking (met3Δ and met14Δ) PAPS synthetase activities.
The yeast system was used to determine if chlorate could be used to effect a relevant decrease in the accumulation of PAP in the presence of lithium. […] The decrease in PAP accumulation was physiologically relevant since chlorate produced a protective effect in the presence of lithium. […] When 25 mM NaClO3 is included in the culture medium, the growth inhibition is abated, with the IC50 increasing to approximately 80 mM LiCl (FIG. 11)

cultured IMCD cells = assay: cAMP production during stimulation of cultured IMCD cells; assay type: cell-based, mouse; conditions: lithium present

T1 sequence (P52840 whole entry, the tested form may be a part): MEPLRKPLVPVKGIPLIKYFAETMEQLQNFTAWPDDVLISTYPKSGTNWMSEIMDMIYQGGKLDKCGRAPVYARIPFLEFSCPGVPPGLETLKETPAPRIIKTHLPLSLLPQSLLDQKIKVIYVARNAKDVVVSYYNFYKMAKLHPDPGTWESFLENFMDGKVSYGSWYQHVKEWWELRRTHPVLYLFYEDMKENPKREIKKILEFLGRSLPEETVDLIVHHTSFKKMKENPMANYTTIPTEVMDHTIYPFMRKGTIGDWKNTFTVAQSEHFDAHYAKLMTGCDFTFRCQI

## O=P(O)(O)O[C@H]1[C@H](O)[C@@H](O)[C@H](OP(=O)(O)O)[C@@H](O)[C@H]1O [inositol 1,4-bisphosphate]
BPntase; read-out: Ki, competitive inhibition of BPntase
  Ki: 15 µM

## Nc1ncnc2c1ncn2[C@@H]1O[C@H](COP(=O)(O)O)[C@@H](OP(=O)(O)O)[C@H]1O [PAP, 3′-phosphoadenosine 5′-phosphate]
Adenylate cyclase
  IC50: ~50 µM
[1]
  Kd: ~0.035 µM and 0.0357 µM

## CSCC[C@H](N)C(=O)O [methionine]
[2]; wild type, lithium present, methionine 20 μg/ml in media
  Intracellular PAP concentration with methionine: 2.3 nmol/mg
[3]; met3Δ expressing hPAPSS2 from galactose-inducible vector, lithium present
  Effect of methionine on PAP accumulation: little effect
[4]; met14Δ expressing hPAPSS2 from galactose-inducible vector, lithium present
  Effect of methionine on PAP accumulation: little effect

## Nc1ncnc2c1ncn2[C@@H]1O[C@H](COP(=O)(O)OS(=O)(=O)O)[C@@H](OP(=O)(O)O)[C@H]1O [3′-phosphoadenosine 5′-phosphosulfate]
BPntase; removal of 3′-phosphate
  Vmax of BPntase substrate: 40 µmol/min/mg
BPntase; removal of 3′-phosphate, read-out: Km of BPntase substrate
  Km: 0.5 µM

## [O-][Cl+2]([O-])O [chlorate]
Wild type yeast
  Effect of chlorate on sensitivity of yeast growth to lithium: reduces sensitivity
[2]; wild type, 100 mM lithium plus 25 mM NaClO3
  Fold PAP accumulation with chlorate: 30.8 fold
[2]; yeast, lithium present
  Effect of chlorate on lithium-dependent PAP accumulation / production: inhibited production of PAP in vivo
Cultured IMCD cells
  Effect of chlorate on accumulation of cAMP: partially restored
[3]; met3Δ expressing hPAPSS2, 100 mM lithium plus 25 mM NaClO3
  Fold PAP accumulation with chlorate: 27.0 fold
[4]; met14Δ expressing hPAPSS2, 100 mM lithium plus 25 mM NaClO3
  Fold PAP accumulation with chlorate: 22.1 fold

Reference: US20050037450A1, “Novel targets for lithium therapy” (Duke University, priority 2002, published 2005)
